# Results taken from US20260337190A1, “CRYSTAL FORM OF PYRIDINOPYRIMIDINONE COMPOUND, ACID SALT THEREOF, CRYSTAL FORM OF ACID SALT THEREOF, AND USE” (Wuhan Humanwell Innovative Drug Research and Development …, priority 2022, published 2026).
# “Also recorded” adds a separate entry of the source.
# Legend:
# [1] = biological target: T1, KRAS G12C-SOS1 (Homo sapiens, UniProt Q07889); assay: Inhibition of KRAS G12C::SOS1 binding; conditions: summary statement
# T1 sequence (Q07889 1-1333): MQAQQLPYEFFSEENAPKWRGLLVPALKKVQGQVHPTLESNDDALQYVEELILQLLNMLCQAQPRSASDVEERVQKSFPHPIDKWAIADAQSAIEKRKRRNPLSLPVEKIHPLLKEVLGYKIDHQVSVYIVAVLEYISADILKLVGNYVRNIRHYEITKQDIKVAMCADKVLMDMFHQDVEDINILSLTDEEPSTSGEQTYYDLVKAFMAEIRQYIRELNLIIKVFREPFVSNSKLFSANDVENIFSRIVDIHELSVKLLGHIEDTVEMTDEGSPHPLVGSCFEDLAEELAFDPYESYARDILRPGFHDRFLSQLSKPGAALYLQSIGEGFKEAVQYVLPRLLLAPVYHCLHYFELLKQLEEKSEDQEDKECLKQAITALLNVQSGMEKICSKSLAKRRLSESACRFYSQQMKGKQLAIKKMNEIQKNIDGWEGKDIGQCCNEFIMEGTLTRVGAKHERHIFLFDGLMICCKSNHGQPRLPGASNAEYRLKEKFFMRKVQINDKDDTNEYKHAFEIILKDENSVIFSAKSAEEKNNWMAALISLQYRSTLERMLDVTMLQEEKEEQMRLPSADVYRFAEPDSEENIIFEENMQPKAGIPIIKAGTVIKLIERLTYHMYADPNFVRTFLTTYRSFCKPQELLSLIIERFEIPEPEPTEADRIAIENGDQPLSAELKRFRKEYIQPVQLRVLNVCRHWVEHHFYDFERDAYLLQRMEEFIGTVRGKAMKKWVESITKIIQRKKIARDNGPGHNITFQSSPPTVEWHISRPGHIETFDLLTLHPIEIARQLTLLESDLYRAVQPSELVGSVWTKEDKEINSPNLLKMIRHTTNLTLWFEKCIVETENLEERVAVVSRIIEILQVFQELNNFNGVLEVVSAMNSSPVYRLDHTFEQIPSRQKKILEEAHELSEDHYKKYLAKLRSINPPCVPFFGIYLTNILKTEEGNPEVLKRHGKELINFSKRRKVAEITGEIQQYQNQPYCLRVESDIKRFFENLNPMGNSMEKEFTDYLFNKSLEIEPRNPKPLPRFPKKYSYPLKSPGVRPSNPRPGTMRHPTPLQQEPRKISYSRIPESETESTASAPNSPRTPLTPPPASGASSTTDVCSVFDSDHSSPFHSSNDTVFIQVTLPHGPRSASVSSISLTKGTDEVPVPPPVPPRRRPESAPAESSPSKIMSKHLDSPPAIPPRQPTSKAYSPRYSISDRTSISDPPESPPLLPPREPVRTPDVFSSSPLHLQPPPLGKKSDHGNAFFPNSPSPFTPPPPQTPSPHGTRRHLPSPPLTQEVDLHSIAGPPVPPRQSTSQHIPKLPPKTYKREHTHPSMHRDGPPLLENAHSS
# [2] = Human liver microsome stability; format: in vitro ADME
# Experimental: The human liver microsome stability test was performed by incubating the compound and human liver microsomes in vitro. First, the compound to be tested was prepared into a 10 mM stock solution in DMSO solvent, and then the compound was diluted to 0.5 mM with acetonitrile. Human liver microsomes (Corning) were diluted with PBS into a microsome/buffer solution, and the solution was used to dilute 0.5 mM compound into a working solution, in which the concentration of the compound was 1.5 μM, and the concentration of human liver microsomes was 0.75 mg/mL. A deep-well plate was taken, 30 μL of the working solution was added per well, and then 15 μL of pre-heated 6 mM NADPH solution was added thereto to initiate a reaction, and the reaction was incubated at 37 °C At 0, 5, 15, 30, and 45 min of the incubation, 135 μL of acetonitrile was added to the corresponding wells to terminate the reaction. After the reaction was terminated with acetonitrile at the last time point of 45 min, the deep-well plate was vortexed for 10 min (600 rpm/min), and then centrifuged for 15 min. After centrifugation, the supernatant was collected, and added with purified water in a ratio of 1:1 to perform LC-MS/MS detection. A ratio of a peak area of compound to a peak area of internal standard at each time point was obtained, and the peak area ratios of the compound at 5, 15, 30, and 45 min were compared with the peak area ratio at 0 min to calculate the remaining percentage of the compound at each time point. T1/2 was calculated by using GraphPad 5 software.
# [3] = Mouse pharmacokinetic test, oral gavage; format: in vivo, male ICR mice; conditions: summary statement; listed as compound of the present disclosure
# Experimental: Male ICR mice (20 to 25 g) were used, and fasted overnight. Three mice were taken and orally administered by gavage (10 mg/kg). Blood was collected before the administration, and at 15 min, 30 min, 1 h, 2 h, 4 h, 8 h, and 24 h after the administration. 6,800 g of the blood samples were centrifuged at 2 to 8 °C for 6 min, and plasma was collected and stored at −80 °C The plasma at each time point was taken and added with an acetonitrile solution containing internal standard in 3 to 5 times the amount, vortexed and mixed for 1 min, and centrifuged at 13,000 rpm/min at 4 °C for 10 min. The supernatant was collected, added with water in 3 times the amount, and mixed. An appropriate amount of the mixture was taken for LC-MS/MS analysis. The main pharmacokinetic parameters were analyzed using WinNonlin 7.0 software with non-compartmental model.
# [4] = system: LOVO tumor; assay: In vivo efficacy on LOVO colorectal cancer; parameters: species or system mice
# Experimental: After one week of adaptive feeding of mice, LOVO cells in a logarithmic phase were resuspended in serum-free F12K, 5×10^6 LOVO cells were inoculated subcutaneously at the right flank at 100 μL per mouse, and tumor growth was observed regularly. When the tumor grew to an average volume of 150 to 200 mm^3, the mice were randomly divided into a model group and an administration group based on the tumor size and body weight. The tumor size and body weight were measured and recorded before and during the administration. After the treatment, the tumor size in the model group was compared with that in the administration group to determine the efficacy.
smiles,measurement,setting,value
"Cc1nc(N[C@H](C)c2cccc(S(F)(F)(F)(F)F)c2)c2cn(C3(CF)CC3)c(=O)cc2n1 [compound of formula I, (R)-6-(1-(fluoromethyl)cyclopropyl)-2-methyl-4-((1-(3-(pentafluorosulfanyl)phenyl)ethyl)amino)pyrido[4,3-d]pyrimidin-7(6H)-one]",inhibitory effect on KRAS G12C::SOS1 binding,[1],significant inhibitory effect
same,remaining at 0.5 h,"[2]; human liver microsomes, 30 min, 37 °C, NADPH, read-out: Remaining percentage of compound after incubation for 30 min",98.7%
same,hepatic metabolic stability,[2]; summary statement,good hepatic metabolic stability
same,metabolism in the human body,[2]; summary statement,slow metabolism in the human body
same,pharmacokinetic properties / exposure,[3],high exposure; also recorded: excellent pharmacokinetic properties
same,inhibitory effect on LOVO tumor tissue growth vs control compound II,[4]; comparison with control compound II,better than that of the control compound II
same,inhibitory effect on LOVO tumor tissue growth,"[4]; mouse, in vivo",significant inhibitory effect
